# Assay: Thermal Stability Test
# Type: physicochemical
# Details: 45° C. oven for 21 days; compared with ascorbic acid (FIG. 4)
# Procedure: FIG. 4 is a diagram of Thermal Stability Test observed at 45° C. oven for 21 days.
# Competitive with 3-O-ethyl-ascorbic acid and Azelaic acid, inventive samples have best effect in tyrsoinase inhibition.
compound,measurement,value
"CCOC1=C(O)C(=O)O[C@@H]1[C@@H](O)COC(=O)CCCCCCCC(=O)O [Formula (IV), 3-O-ethyl-ascorbyl-6-nonanedioate]",thermal stability,stable than ascorbic acid

# — US7741496B2, “Ascorbic acid derivatives” (Corum Inc., priority 2008, dated 2010)
